Measurements from the NIST ThermoML archive (doi:10.1016/j.tca.2006.10.008).
Values joined by “and” are separate entries in the source; they are usually repeats but may differ in a detail not shown here. Equal entries are not always repeated.

Settings: for vapor or sublimation pressure: Transpiration method; for Triple point temperature: DTA

F[B-](F)(F)F.[Cs+] [cesium tetrafluoroborate]
Crystal 1
Settings | vapor or sublimation pressure
586 K | 3.63e-05 kPa
592 K | 4.17e-05 kPa
602 K | 6.62e-05 kPa
608 K | 8.43e-05 kPa
611 K | 8.34e-05 kPa
623 K | 0.0001414 kPa
627 K | 0.0001287 kPa [middle of 4 runs]
634 K | 0.0001822 kPa
648 K | 0.0002611 kPa
654 K | 0.0003472 kPa
666 K | 0.0003572 kPa
682 K | 0.0005593 kPa
692 K | 0.0007727 kPa
703 K | 0.0008954 kPa
705 K | 0.000949 kPa

Settings | Triple point temperature [K]
Crystal 2 | 442

F[B-](F)(F)F.[Rb+] [rubidium tetrafluoroborate]
Crystal 1
Settings | vapor or sublimation pressure
550 K | 3.93e-05 kPa
555 K | 5.32e-05 kPa
566 K | 6.47e-05 kPa
576 K | 9.73e-05 kPa
581 K | 9.94e-05 kPa
592 K | 0.0001394 kPa
602 K | 0.0001641 kPa
613 K | 0.0002173 kPa
622 K | 0.0002867 kPa and 0.000287 kPa and 0.0002854 kPa
629 K | 0.0003005 kPa
641 K | 0.0004209 kPa
655 K | 0.0005109 kPa
676 K | 0.0007892 kPa
697 K | 0.001082 kPa

Settings | Triple point temperature [K]
Crystal 2 | 527

F[B-](F)(F)F.[Na+] [sodium tetrafluoroborate]
vapor or sublimation pressure
Settings | Crystal 1 | Crystal 2
483 K | – | 0.0002215 kPa
493 K | – | 0.0003008 kPa
498 K | – | 0.0003479 kPa
503 K | – | 0.0003963 kPa
519 K | 0.0006401 kPa | 0.0006401 kPa
523 K | 0.0008727 kPa | –
533 K | 0.001184 kPa | –
544 K | 0.001662 kPa | –
545 K | 0.001475 kPa | –
554 K | 0.001848 kPa [middle of 5 runs] | –
566 K | 0.002561 kPa | –
575 K | 0.002638 kPa | –
576 K | 0.003027 kPa | –
580 K | 0.003513 kPa | –
586 K | 0.003838 kPa | –
602 K | 0.003513 kPa | –
612 K | 0.005891 kPa | –
622 K | 0.008782 kPa | –
663 K | 0.01582 kPa | –

Settings | Triple point temperature [K]
Crystal 2 | 519
